Active and inactive are the calls of the source. The calls are words filed in the database; no cut-off is given here. Positions of bridges follow the written chain, without caps; N, C: chain ends. Non-standard residues stand in square brackets, D forms with d. Residues, ends and D or L forms follow the SMILES beside them. Nphe = O=C(O)CNCc1ccccc1; Abu = CC[C@H](N)C(=O)O; Nlys = NCCCCNCC(=O)O
What was measured:
Bos taurus [1] = species: Bos taurus; experiment: Inhibition of bovine alpha chymotrypsin assessed as residual activity after 40 mins by spectrophotometry
[2] = Proteolytic stability assessed as half life of trypsin-mediated hydrolysis by RP-HPLC; format: ADME
[3] = target: T1, Serine protease 1 (Bos taurus) (UniProt P00760); experiment: Inhibition of bovine beta trypsin assessed as residual activity by spectrophotometry
T1 sequence (whole entry): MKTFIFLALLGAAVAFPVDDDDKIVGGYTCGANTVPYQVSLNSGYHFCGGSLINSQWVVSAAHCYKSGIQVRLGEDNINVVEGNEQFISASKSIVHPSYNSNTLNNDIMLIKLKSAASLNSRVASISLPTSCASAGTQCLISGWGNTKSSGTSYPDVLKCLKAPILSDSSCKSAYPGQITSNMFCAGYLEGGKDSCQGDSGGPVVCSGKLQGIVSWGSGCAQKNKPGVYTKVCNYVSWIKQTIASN

Bos taurus [4] = species: Bos taurus; experiment: Inhibition of bovine alpha chymotrypsin assessed as residual activity by spectrophotometry
[5] = target: T1, Serine protease 1 (Bos taurus); experiment: Inhibition of bovine beta trypsin assessed as residual activity after 40 mins by spectrophotometry
[6] = Proteolytic stability assessed as trypsin-mediated hydrolysis at pH 8.3 after 24 hrs by RP-HPLC; format: ADME; conditions: read-out: Activity
[7] = target: T1, Serine protease 1 (Bos taurus); experiment: Inhibition of bovine beta trypsin assessed as residual activity after 60 mins by spectrophotometry
Bos taurus [8] = species: Bos taurus; experiment: Inhibition of bovine alpha chymotrypsin assessed as residual activity after 3 hrs by spectrophotometry

`CC[C@H](NC(=O)[C@H](CCCNC(=N)N)NC(=O)CN)C(=O)N[C@H](C(=O)N(CC(=O)N[C@@H](CO)C(=O)N[C@H](C(=O)N1CCC[C@H]1C(=O)N1CCC[C@H]1C(=O)N[C@H](C(=O)N[C@@H](CC)C(=O)N[C@@H](Cc1ccccc1)C(=O)N1CCC[C@H]1C(=O)N[C@@H](CC(=O)O)C(=O)O)[C@@H](C)CC)[C@@H](C)CC)Cc1ccccc1)[C@H](C)O` gave a Ka (Bos taurus [1]) of 7 ×10⁷ /M.

Work on `CC[C@@H]1NC(=O)[C@H](CCCNC(=N)N)NC(=O)CNC(=O)[C@H](CC(=O)O)NC(=O)[C@@H]2CCCN2C(=O)[C@H](Cc2ccccc2)NC(=O)[C@H](CC)NC(=O)[C@H]([C@@H](C)CC)NC(=O)[C@@H]2CCCN2C(=O)[C@@H]2CCCN2C(=O)[C@H]([C@@H](C)CC)NC(=O)[C@H](CO)NC(=O)CN(CCCCN)C(=O)[C@H]([C@@H](C)O)NC1=O` yielded a half-life [2] of 1.37 h.

In the case of `CC[C@H](NC(=O)CNCCCCN)C(=O)N[C@H](C(=O)N(CCCCN)CC(=O)N[C@@H](CO)C(=O)N[C@H](C(=O)N1CCC[C@H]1C(=O)N1CCC[C@H]1C(=O)N[C@H](C(=O)N[C@@H](CC)C(=O)N[C@@H](Cc1ccccc1)C(=O)N1CCC[C@@H]1C(=O)N[C@@H](CC(=O)O)C(=O)O)[C@@H](C)CC)[C@@H](C)CC)[C@H](C)O`, the Activity [3] is reported as “inactive”.

In the case of `CC[C@H](C)[C@@H]1NC(=O)[C@@H]2CCCN2C(=O)[C@@H]2CCCN2C(=O)[C@H]([C@@H](C)CC)NC(=O)[C@H](CO)NC(=O)CN(CCCCN)C(=O)[C@H]([C@@H](C)O)NC(=O)[C@@H](NC(=O)[C@H](CCCNC(=N)N)NC(=O)CN)CSSC[C@@H](C(=O)N[C@@H](Cc2ccccc2)C(=O)N2CCC[C@H]2C(=O)N[C@@H](CC(=O)O)C(=O)O)NC1=O`, the Ka [3] is reported as 1 ×10⁸ /M.

Compound `CC[C@H](C)[C@@H]1NC(=O)[C@@H]2CCCN2C(=O)[C@@H]2CCCN2C(=O)[C@H]([C@@H](C)CC)NC(=O)[C@H](CO)NC(=O)CN(Cc2ccccc2)C(=O)[C@H]([C@@H](C)O)NC(=O)[C@@H](NC(=O)[C@H](CCCNC(=N)N)NC(=O)CN)CSSC[C@@H](C(=O)N[C@@H](Cc2ccccc2)C(=O)N2CCC[C@H]2C(=O)N[C@@H](CC(=O)O)C(=O)O)NC1=O` (H-GRCT[Nphe]SIPPICFPD-OH; disulfide 3-11) has a Ka (Bos taurus [4]) of 3.8 ×10⁸ /M.

`CC[C@@H]1NC(=O)[C@H](CCCNC(=N)N)NC(=O)CNC(=O)[C@H](CC(=O)O)NC(=O)[C@@H]2CCCN2C(=O)[C@H](Cc2ccccc2)NC(=O)[C@H](CC)NC(=O)[C@H]([C@@H](C)CC)NC(=O)[C@@H]2CCCN2C(=O)[C@@H]2CCCN2C(=O)[C@H]([C@@H](C)CC)NC(=O)[C@H](CO)NC(=O)CN(Cc2ccccc2)C(=O)[C@H]([C@@H](C)O)NC1=O` gave a half-life [2] of 5.87 h.

For `CC[C@H](C)[C@@H]1NC(=O)[C@@H]2CCCN2C(=O)[C@@H]2CCCN2C(=O)[C@H]([C@@H](C)CC)NC(=O)[C@H](CO)NC(=O)CN(CCCCN)C(=O)[C@H]([C@H](C)O)NC(=O)[C@@H](NC(=O)[C@@H](N)CCCCN)CSSC[C@@H](C(=O)N[C@@H](Cc2ccccc2)C(=O)N2CCC[C@H]2C(=O)N[C@@H](CC(=O)O)C(=O)O)NC1=O`, the Ka [5] was 8 ×10⁷ /M.

With `CC[C@H](NC(=O)[C@H](CCCNC(=N)N)NC(=O)CN)C(=O)N[C@H](C(=O)N[C@@H](Cc1ccccc1)C(=O)N[C@@H](CO)C(=O)N[C@H](C(=O)N1CCC[C@H]1C(=O)N1CCC[C@H]1C(=O)N[C@H](C(=O)N[C@@H](CC)C(=O)N[C@@H](Cc1ccccc1)C(=O)N1CCC[C@H]1C(=O)N[C@@H](CC(=O)O)C(=O)O)[C@@H](C)CC)[C@@H](C)CC)[C@H](C)O` the Activity (Bos taurus [4]) was “inactive”.

In the case of `CC[C@H](NC(=O)[C@@H](NC(=O)[C@@H]1CCCN1C(=O)[C@@H]1CCCN1C(=O)[C@@H](NC(=O)[C@H](CO)NC(=O)CN(CCCCN)C(=O)[C@@H](NC(=O)[C@H](CC)NC(=O)[C@@H](N)CCCCN)[C@H](C)O)[C@@H](C)CC)[C@@H](C)CC)C(=O)N[C@@H](Cc1ccccc1)C(=O)N1CCC[C@H]1C(=O)N[C@@H](CC(=O)O)C(=O)O`, the Activity [3] is reported as “inactive”.

In the case of `CC[C@H](NC(=O)[C@H](CCCNC(=N)N)NC(=O)CN)C(=O)N[C@H](C(=O)N(CC(=O)N[C@@H](CO)C(=O)N[C@H](C(=O)N1CCC[C@H]1C(=O)N1CCC[C@H]1C(=O)N[C@H](C(=O)N[C@@H](CC)C(=O)N[C@@H](Cc1ccccc1)C(=O)N1CCC[C@H]1C(=O)N[C@@H](CC(=O)O)C(=O)O)[C@@H](C)CC)[C@@H](C)CC)Cc1ccccc1)[C@@H](C)O`, the metabolised at 24 h [6] is reported as 7%.

`CC[C@@H]1NC(=O)[C@H](CCCNC(=N)N)NC(=O)CNC(=O)[C@H](CC(=O)O)NC(=O)[C@@H]2CCCN2C(=O)[C@H](Cc2ccccc2)NC(=O)[C@H](CC)NC(=O)[C@H]([C@@H](C)CC)NC(=O)[C@@H]2CCCN2C(=O)[C@@H]2CCCN2C(=O)[C@H]([C@@H](C)CC)NC(=O)[C@H](CO)NC(=O)CN(CCCCN)C(=O)[C@H]([C@H](C)O)NC1=O` showed a Ka [7] of 1.9 ×10⁸ /M.

For `CC[C@H](C)[C@@H]1NC(=O)[C@@H]2CCCN2C(=O)[C@@H]2CCCN2C(=O)[C@H]([C@@H](C)CC)NC(=O)[C@H](CO)NC(=O)[C@H](CCCCN)NC(=O)[C@H]([C@@H](C)O)NC(=O)[C@@H](NC(=O)[C@H](CCCNC(=N)N)NC(=O)CN)CSSC[C@@H](C(=O)N[C@@H](Cc2ccccc2)C(=O)N2CCC[C@H]2C(=O)N[C@@H](CC(=O)O)C(=O)O)NC1=O`, the half-life [2] was 2.75 h, the Ka [3] was 9.9 ×10⁹ /M and the Ka (Bos taurus [4]) was 4.9 ×10⁶ /M.

Compound `CC[C@H](NC(=O)[C@H](CCCNC(=N)N)NC(=O)CN)C(=O)N[C@H](C(=O)N(CCCCN)CC(=O)N[C@@H](CO)C(=O)N[C@H](C(=O)N1CCC[C@H]1C(=O)N1CCC[C@H]1C(=O)N[C@H](C(=O)N[C@@H](CC)C(=O)N[C@@H](Cc1ccccc1)C(=O)N1CCC[C@H]1C(=O)N[C@@H](CC(=O)O)C(=O)O)[C@@H](C)CC)[C@@H](C)CC)[C@@H](C)O` (H-GR[Abu]T[Nlys]SIPPI[Abu]FPD-OH) has a half-life [2] of 1.1 h.

`CC[C@@H]1NC(=O)[C@H](CCCNC(=N)N)NC(=O)CNC(=O)[C@H](CC(=O)O)NC(=O)[C@@H]2CCCN2C(=O)[C@H](Cc2ccccc2)NC(=O)[C@H](CC)NC(=O)[C@H]([C@@H](C)CC)NC(=O)[C@@H]2CCCN2C(=O)[C@@H]2CCCN2C(=O)[C@H]([C@@H](C)CC)NC(=O)[C@H](CO)NC(=O)CN(Cc2ccccc2)C(=O)[C@H]([C@H](C)O)NC1=O` gave a Ka (Bos taurus [1]) of 6.2 ×10⁷ /M.

`CC[C@H](C)[C@@H]1NC(=O)[C@@H]2CCCN2C(=O)[C@@H]2CCCN2C(=O)[C@H]([C@@H](C)CC)NC(=O)[C@H](CO)NC(=O)[C@H](Cc2ccccc2)NC(=O)[C@H]([C@@H](C)O)NC(=O)[C@@H](NC(=O)[C@H](CCCNC(=N)N)NC(=O)CN)CSSC[C@@H](C(=O)N[C@@H](Cc2ccccc2)C(=O)N2CCC[C@H]2C(=O)N[C@@H](CC(=O)O)C(=O)O)NC1=O` (H-GRCTFSIPPICFPD-OH; disulfide 3-11) gave a half-life [2] of 3.03 h and a Ka (Bos taurus [4]) of 2 ×10⁹ /M.

Work on `CC[C@H](NC(=O)[C@H](CCCNC(=N)N)NC(=O)CN)C(=O)N[C@H](C(=O)N[C@@H](Cc1ccccc1)C(=O)N[C@@H](CO)C(=O)N[C@H](C(=O)N1CCC[C@H]1C(=O)N1CCC[C@H]1C(=O)N[C@H](C(=O)N[C@@H](CC)C(=O)N[C@@H](Cc1ccccc1)C(=O)N1CCC[C@H]1C(=O)N[C@@H](CC(=O)O)C(=O)O)[C@@H](C)CC)[C@@H](C)CC)[C@@H](C)O` yielded a half-life [2] of 1.25 h.

Work on `CC[C@@H]1NC(=O)[C@H](CCCNC(=N)N)NC(=O)CNC(=O)[C@H](CC(=O)O)NC(=O)[C@@H]2CCCN2C(=O)[C@H](Cc2ccccc2)NC(=O)[C@H](CC)NC(=O)[C@H]([C@@H](C)CC)NC(=O)[C@@H]2CCCN2C(=O)[C@@H]2CCCN2C(=O)[C@H]([C@@H](C)CC)NC(=O)[C@H](CO)NC(=O)[C@H](Cc2ccccc2)NC(=O)[C@H]([C@@H](C)O)NC1=O` (cyclo([Abu]FPDGR[Abu]TFSIPPI)) yielded a metabolised at 24 h [6] of 30%, a half-life [2] of 5.9 h and a Ka (Bos taurus [8]) of 1.1 ×10¹⁰ /M.

For `CC[C@H](C)[C@@H]1NC(=O)[C@@H]2CCCN2C(=O)[C@@H]2CCCN2C(=O)[C@H]([C@@H](C)CC)NC(=O)[C@H](CO)NC(=O)[C@H](CCCCN)NC(=O)[C@H]([C@@H](C)O)NC(=O)[C@@H]2CSSC[C@H](NC1=O)C(=O)N[C@@H](Cc1ccccc1)C(=O)N1CCC[C@H]1C(=O)N[C@@H](CC(=O)O)C(=O)NCC(=O)N[C@@H](CCCNC(=N)N)C(=O)N2`, the half-life [2] was 7.25 h and the Ka (Bos taurus [4]) was 4.9 ×10⁶ /M.

Reference: ChEMBL document CHEMBL1150323, “Peptomeric analogues of trypsin inhibitor SFTI-1 isolated from sunflower seeds” (Bioorg Med Chem, 2008)
